# Assay results from patent publication US20150322083A1, “(THIENO[2,3-b][1,5]BENZOXAZEPIN-4-YL)PIPERAZIN-1-YL COMPOUNDS AS SELECTIVE 5-HT2A INVERSE AGONISTS” (Eli Lilly and Company, priority 2014, published 2015).
# Tests used:
# 5-HT7 receptors = 5-HT7 receptors (Homo sapiens, UniProt P34969); assay: 5-HT7 binding
# Experimental: (§1) Curves are evaluated using a 4-parameter logistic nonlinear equation to obtain the concentration of competitor causing 50% inhibition of radioligand binding (IC50). Equilibrium dissociation constants (Ki) are calculated according to the equation Ki=IC50/(1+L/Kd), where L equals the concentration of radioligand used in the experiment and Kd equals the equilibrium dissociation constant of the radioligand for the receptor, determined from standard saturation analysis or homologous competition experiments. Reported values for Ki, where n values are indicated, are shown as geometric mean±the standard error of the mean (SEM), with the number of replicate determinations indicated by n. Geometric means are calculated by the equation GeoMean=10̂(Average(log Ki 1+log Ki 2+ . . . log Ki n)/[…]).
# (§2) Further, the compounds of the invention may be tested in binding assays and functional activity assays by well known methods for other physiologically important receptors such as, but not limited to, the hERG channel, other serotonin receptors (specifically 5-HT1B receptors, lack of agonist activity at 5-HT2B receptors, 5-HT2C, 5-HT5, 5-HT6, and 5-HT7 receptors), dopaminergic receptors (specifically D1, D2, and D3), H1 receptors, GABAA receptors, adrenergic receptors and monoamine transporters.
# Adrenergic alpha2C = Adrenergic alpha2C (Homo sapiens, UniProt P18825); assay: Adrenergic alpha2C binding
# Experimental: as §1, §2
# Adrenergic alpha2A = Adrenergic alpha2A (Homo sapiens, UniProt P08913); assay: Adrenergic alpha2A binding
# Experimental: as §1, §2
# 5-HT6 = 5-HT6 (Homo sapiens, UniProt P50406); assay: 5-HT6 binding
# Experimental: as §1, §2
# 5-HT2B = 5-HT2B (Homo sapiens, UniProt P41595); assay: 5-HT2B binding (selectivity data)
# Experimental: as §1, §2
# [1] = target: recombinant human 5-HT2A receptor (Homo sapiens, UniProt P28223); assay: 5-HT2A inverse agonism, [35S]GTPγS binding to AV12 membranes (human receptor); assay type: biochemical; parameters: expressed in transfected cells; host or cells: AV12 cells, membranes
# Experimental: The inverse agonist activity of compounds of the present invention may be determined by literature recognized assay methods measuring [^35S]GTPγS binding to membranes transfected with 5-HT2A receptors in an in vitro activity assay essentially as described below.
# Membranes are prepared from frozen pellets of whole AV12 cells expressing the human or rat 5-HT2A receptor. Cells are thawed on ice and homogenized in homogenization buffer (50 mM Tris-HCl, 0.5 mM EDTA, 1 tablet/100 mL of complete EDTA free protease inhibitor tablets (Roche Cat. No. 05 056 489 001), pH=7.4) with 20 strokes of a teflon-glass homogenizer attached to a motorized overhead stirrer. Centrifuge membranes at 1000 rpm (aprox. 150×g) for 15 min. at 4° C. […] The final supernatant is discarded and the pellet is resuspended in homogenization buffer and its protein content is determined by the method of Bradford using BSA as the standard. […]
# Test compound is prepared from a 10 mM DMSO stock solution by serial dilution to provide a 10 point concentration response curve, with a final 1% DMSO concentration when added to the assay mixture. […] This mixture is incubated for 3 hr. with constant shaking at room temperature, centrifuged at 300 rpm for 1 min. with no brake and incubated for 3 more hr. before reading in a microplate scintillation counter.
# [2] = system: MK-801 induced locomotor hyperactivity; assay: MK-801 induced locomotor hyperactivity in mice; assay type: in vivo; settings: for Distance traveled during habituation with vehicle or compound, Mean: 1 hr. habituation before MK-801; for Distance traveled after administration of vehicle or 0.1 mg/Kg MK-801, Mean: 2 hrs after MK-801 0.1 mg/kg SC
# Excerpt: MK-801 induced locomotor hyperactivity in mice: The rodent MK-801 induced locomotor hyperactivity assay has been used as a predictor of anti-psychotic therapeutic potential (Corbett, R., Camacho, F., Woods, A. T., Kerman, L. L., Fishkin, R. J., Brooks, K., and Dunn, R. W. Antipsychotic agents antagonize non-competitive N-methyl-D-aspartate antagonist-induced behaviors. Psychopharmacology (1995) vol. 120: 67-74). Compounds of the invention may be evaluated for their ability to reduce locomotor hyperactivity elicited by the NMDA receptor antagonist MK-801. Studies are conducted in the dark. Locomotor activity is measured in clear Perspex™ boxes (40×40×30 cm) based on infrared fields (100×100 cm). Sixteen boxes are used, four on each field, each monitored using overhead infrared cameras (Sanyo VCV-3412P, TrackSys Ltd, UK). The cameras feed into a Quad Videoswitch (VQ403-C), TrackSys Ltd, UK), which in turn feeds a PC running the image analysis application Ethovision v8 (Noidus, NL).
# All treatment tzroups have initial sample sizes of n=8. Mice are assigned to groups using a pseudorandomised block method where treatments are balanced across the time of day of testing and the test room used. On the test day, animals are transported to the testing room ante-chamber in their home cages and dosed with the test compound (0.3-3 mg/kg po) or vehicle before being placed individually into the test boxes for 1 hr., during which time locomotor activity is measured. Following this habituation period, animals are dosed with MK-801 (0.1 mg/kg SC) or vehicle as appropriate and then replaced into the test boxes where locomotor activity is measured for a further 2 hrs. The measurement of interest for LMA studies is the distance moved (cm). Unless stated otherwise, points on all graphs are plotted as the mean±standard errors.
# Data are imported into STATISTICA (v9) for statistical analyses. A general linear model approach is used for all multivariate ANOVAs calculated for the data. Following ANOVA, planned comparisons are used to investigate significant differences from the control animals. Statistical significances are denoted by the following symbols: *p<0.05, **p<0.01. Mean values calculated in Statistica are imported into SigmaPlot (v11) to graph the data.
# recombinant human 5-HT2A receptor, sequence (P28223 whole entry): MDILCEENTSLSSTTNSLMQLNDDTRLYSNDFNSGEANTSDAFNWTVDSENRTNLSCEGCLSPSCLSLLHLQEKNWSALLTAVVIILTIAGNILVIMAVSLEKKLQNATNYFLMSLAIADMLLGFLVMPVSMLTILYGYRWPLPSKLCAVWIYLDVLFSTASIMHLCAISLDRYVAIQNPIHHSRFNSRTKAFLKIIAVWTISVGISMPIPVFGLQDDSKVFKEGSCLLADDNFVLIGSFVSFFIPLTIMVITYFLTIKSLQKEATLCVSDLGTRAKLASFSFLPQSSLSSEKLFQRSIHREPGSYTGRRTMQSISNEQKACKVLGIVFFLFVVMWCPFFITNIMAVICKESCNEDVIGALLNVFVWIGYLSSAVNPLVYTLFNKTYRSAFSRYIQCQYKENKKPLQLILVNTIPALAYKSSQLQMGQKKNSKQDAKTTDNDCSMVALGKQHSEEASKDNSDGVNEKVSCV
# 5-HT2B, sequence (P41595 whole entry, species assumed): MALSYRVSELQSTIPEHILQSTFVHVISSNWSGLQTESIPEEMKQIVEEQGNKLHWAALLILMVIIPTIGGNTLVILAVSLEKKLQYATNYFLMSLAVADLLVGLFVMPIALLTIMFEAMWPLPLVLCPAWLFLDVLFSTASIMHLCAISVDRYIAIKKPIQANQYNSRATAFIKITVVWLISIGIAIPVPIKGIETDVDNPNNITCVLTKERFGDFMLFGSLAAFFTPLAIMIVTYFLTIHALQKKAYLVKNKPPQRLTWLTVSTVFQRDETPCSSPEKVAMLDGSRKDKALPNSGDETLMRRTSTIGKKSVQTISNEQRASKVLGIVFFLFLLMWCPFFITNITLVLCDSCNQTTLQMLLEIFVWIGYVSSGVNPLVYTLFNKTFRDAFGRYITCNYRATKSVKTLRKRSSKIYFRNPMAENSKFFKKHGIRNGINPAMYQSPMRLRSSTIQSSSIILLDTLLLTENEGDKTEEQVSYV
# 5-HT7 receptors, sequence (P34969 whole entry): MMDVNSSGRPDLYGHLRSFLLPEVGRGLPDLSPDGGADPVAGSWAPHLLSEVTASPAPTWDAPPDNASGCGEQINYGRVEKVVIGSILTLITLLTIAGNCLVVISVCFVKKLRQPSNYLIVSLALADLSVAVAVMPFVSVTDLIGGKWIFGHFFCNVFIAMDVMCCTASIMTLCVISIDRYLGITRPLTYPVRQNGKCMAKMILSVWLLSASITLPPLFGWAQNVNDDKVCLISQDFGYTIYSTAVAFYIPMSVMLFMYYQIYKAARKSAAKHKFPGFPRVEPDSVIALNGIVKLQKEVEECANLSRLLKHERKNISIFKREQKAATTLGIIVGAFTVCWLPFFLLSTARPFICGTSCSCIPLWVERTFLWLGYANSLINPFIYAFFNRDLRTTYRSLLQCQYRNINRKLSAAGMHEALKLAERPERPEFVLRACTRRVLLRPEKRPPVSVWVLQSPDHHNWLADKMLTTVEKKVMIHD
# Adrenergic alpha2A, sequence (P08913 whole entry): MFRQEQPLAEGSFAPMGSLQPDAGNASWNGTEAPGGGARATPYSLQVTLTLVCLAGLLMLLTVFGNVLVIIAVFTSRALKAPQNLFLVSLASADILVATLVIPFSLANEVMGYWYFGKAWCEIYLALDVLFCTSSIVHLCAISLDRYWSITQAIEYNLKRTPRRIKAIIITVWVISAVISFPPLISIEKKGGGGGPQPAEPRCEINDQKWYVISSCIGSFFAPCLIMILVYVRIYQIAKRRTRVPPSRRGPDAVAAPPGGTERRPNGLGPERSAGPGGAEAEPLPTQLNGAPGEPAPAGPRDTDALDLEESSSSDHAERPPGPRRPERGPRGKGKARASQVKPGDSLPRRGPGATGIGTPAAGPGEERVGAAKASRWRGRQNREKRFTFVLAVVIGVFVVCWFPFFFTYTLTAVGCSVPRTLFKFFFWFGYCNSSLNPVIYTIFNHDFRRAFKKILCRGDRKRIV
# Adrenergic alpha2C, sequence (P18825 whole entry): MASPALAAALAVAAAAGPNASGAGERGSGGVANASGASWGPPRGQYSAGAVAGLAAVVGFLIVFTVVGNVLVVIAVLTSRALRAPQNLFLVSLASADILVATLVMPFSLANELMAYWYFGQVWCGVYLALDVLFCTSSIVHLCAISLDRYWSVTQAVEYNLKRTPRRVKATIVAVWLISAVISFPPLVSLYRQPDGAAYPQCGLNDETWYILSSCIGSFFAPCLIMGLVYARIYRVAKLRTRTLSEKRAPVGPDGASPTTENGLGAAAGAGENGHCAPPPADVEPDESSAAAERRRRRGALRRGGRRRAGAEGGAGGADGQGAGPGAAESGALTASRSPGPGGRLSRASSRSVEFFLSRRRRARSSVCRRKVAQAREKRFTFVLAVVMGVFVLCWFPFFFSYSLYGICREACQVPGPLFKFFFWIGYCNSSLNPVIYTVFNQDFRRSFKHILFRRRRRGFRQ
# 5-HT6, sequence (P50406 whole entry, species assumed): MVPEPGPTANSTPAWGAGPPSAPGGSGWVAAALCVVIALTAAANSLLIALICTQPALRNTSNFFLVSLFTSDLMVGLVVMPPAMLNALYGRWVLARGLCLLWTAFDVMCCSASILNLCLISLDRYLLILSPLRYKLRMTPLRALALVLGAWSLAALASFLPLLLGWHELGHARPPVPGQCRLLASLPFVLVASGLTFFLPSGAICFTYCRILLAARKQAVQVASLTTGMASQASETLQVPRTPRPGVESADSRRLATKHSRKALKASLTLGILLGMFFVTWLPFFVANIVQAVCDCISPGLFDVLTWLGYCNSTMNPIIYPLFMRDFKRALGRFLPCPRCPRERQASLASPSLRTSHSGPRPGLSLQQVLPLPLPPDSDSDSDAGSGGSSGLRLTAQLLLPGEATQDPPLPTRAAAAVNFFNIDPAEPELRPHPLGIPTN
smiles,measurement,setting,value
"Cc1ccc2c(c1)Oc1sc(SC(C)C)cc1C(N1CCN(CC(C)(C)C(=O)O)CC1)=N2 [Example 1, 3-[4-(2-isopropylsulfanyl-8-methyl-thieno[2,3-b][1,5]benzoxazepin-4-yl)piperazin-1-yl]-2,2-dimethyl-propanoic acid]",Ki,5-HT7 receptors,> 2.06 µM
same,Ki,Adrenergic alpha2C,> 6.43 µM
same,Ki,Adrenergic alpha2A,> 1.61 µM
same,Ki,5-HT6,1.13 µM
same,Ki,5-HT2B,0.763 µM
same,5-HT2A inverse agonism (in words),[1],inverse agonist of the 5-HT2A receptor
same,EC50,"[1]; recombinant human receptor, n=2, read-out: EC50, inhibition of intrinsic activity of the 5-HT2A receptor",0.085 µM
same,"Distance traveled during habituation with vehicle or compound, Mean",[2]; 0.3 mg/Kg po,9336.73 cm
same,"Distance traveled after administration of vehicle or 0.1 mg/Kg MK-801, Mean",[2]; 0.3 mg/Kg po,8492.08 cm
same,"Distance traveled during habituation with vehicle or compound, Mean",[2]; 1.0 mg/Kg po,8939.48 cm
same,"Distance traveled after administration of vehicle or 0.1 mg/Kg MK-801, Mean",[2]; 1.0 mg/Kg po,7258.87 cm
same,"Distance traveled during habituation with vehicle or compound, Mean",[2]; 3.0 mg/Kg po,7682.77 cm
same,"Distance traveled after administration of vehicle or 0.1 mg/Kg MK-801, Mean",[2]; 3.0 mg/Kg po,7085.68 cm
same,effect on MK-801 induced locomotor hyperactivity (in words),[2]; 0.3-3 mg/kg po,significantly block
